Measured values reported in US20230174571A1, “METHOD OF TREATING SHIP1-MEDIATED DISEASES USING PELOROL DERIVATIVES” (Zebrapeutics Inc., priority 2020, published 2023).

How the values were obtained:
[1] = system: colitis in IL10−/− mice; experiment: Mouse colitis model (IL10 knock-out); type: in vivo; details: colitic IL10−/− mice
Procedure: Mouse Colitis Model. Colitis was induced in 6-8 week old BALB/cIL10−/−mice by administering the colonic contents of conventional C57BL/6 mice diluted 1:10 in PBS by oral gavage. Mouse weights and fecal consistencies were monitored and colitis allowed to develop for 6 weeks. Ethanol (Vehicle) and compound I-1 (3 mg/kg) was diluted in cage drinking water and dexamethasone (0.4 mg/kg) was administered every 2 days by oral gavage for 3 weeks. At the end of the dosing period, proximal, medial and distal colon sections were collected for paraffin embedding or stored in RNALater (Invitrogen, Mississauga, ON) for RNA extraction. Slides were prepared, stained with hematoxylin and eosin, and mounted by the UBC Department of Pathology and Laboratory Medicine Histochemistry Facility. Specimens were assigned pathological scores by two, independent, blinded investigators according to a method described by Madsen et al (Madsen et al., 2001). In brief, colonic inflammation was graded using a 4-point scale, scoring 0-3 for each of submucosal edema, immune cell infiltration, goblet cell ablation, and integrity of the epithelial layer. For analysis of mRNA expression, colon sections were homogenized and total RNA extracted as described above and analyzed by real time PCR using gene specific primers for IL17, CCL2, and GAPDH (normalization control).
To show in vivo anti-inflammatory effect of the compounds of the present disclosure, exemplary compound I-1 was administered to IL-10 knock-out mouse model of colitis (Keubler 2015). IL10 knock-out mice develop colitis when colonized with normal gut flora because IL10 is needed to temper the host immune response to intestinal commensal bacteria (Keubler 2015, Kuhn 1993). Colitis was initiated in IL10−/−mice by inoculating them with the freshly isolated colon contents of normal, specific pathogen free mice and allowed inflammation to develop for 6 weeks (Sydora 2003). Mice were then treated for 3 weeks with vehicle, 2 mg/kg compound I-1, or 0.4 mg/kg dexamethasone (anti-inflammatory steroidal drug used as positive control) prior to colon tissue collection for analyses. Hematoxylin and eosin stained sections were prepared from the proximal, mid and distal colons of mice, as well as from mice not inoculated with flora (no colitis group) (FIG. 8A).

[2] = system: ConA-induced liver injury; experiment: ConA-induced liver injury model; type: in vivo, mouse
Description: Concanavalin A (ConA) induced liver injury model is an immune-mediated liver injury model, resembling viral and autoimmune hepatitis in humans. Intravenous delivery of ConA in mice is known to activate T cells, resulting in increased inflammatory cytokines such as TNF-α, IFN-r and IL-6 as well as decreased anti-inflammatory cytokine IL-10. The T cell infiltration into the liver leads to consequences of hepatocyte apoptosis and necrosis, resulting in increased levels of liver enzymes ALT and AST in plasma. (Zhou 2015) Methods: Five groups (n=5 each) of C57 mice were treated with a blank control, compound I-1 alone (10 mg/kg/d), ConA (15 mg/kg), ConA+compound I-1 (3 mg/kg/d) or ConA+compound I-1 (10 mg/kg/d). In each instance, compound I-1 was given 5 days before ConA injection (if applicable) via oral gavage twice a day. One hour after the last drug administration, ConA (15 mg/kg) was delivered intravenously. 12 hours after the ConA injection, orbital blood was taken from the eye and the enzyme biochemistry (plasma) and blood cell type tests were performed by analyzers.

[3] = system: CLP-induced sepsis; experiment: Caecum Ligation and Puncture (CLP) sepsis model; type: in vivo, mouse; details: CLP mice, oral gavage; vs. 20% in CLP group without drug
Description: The mouse CLP model is well-accepted clinically relevant method for anti-sepsis drug testing. The surgical operation included opening of the mouse abdomen, ligation of the cecum and puncture of the ligated cecum with a needle. Rittirsch, 2009 Method was followed to induce Mid to High grade experimental sepsis to achieve 70-100% […] rate over 7 days after CLP operation.
Methods: Five groups (n=10 each) of mice were designed with (1) a blank control, (2) Sham control (abdomen operation was performed but without cecal ligation/puncture), (3) CLP group (operation with cecal ligation/puncture), (4) CLP+compound I-1 (MN100) (3 mg/kg/d), and (5) CLP+compound I-1 (MN100) (10 mg/kg/d). ZPR-MN100 (compound I-1) was given 3 days before CLP operation and continued to 7 days after CLP. ZPR-MN100 was delivered via oral gavage twice a day. […] Mouse condition and survival were recorded every day. Seven days after CLP, the experiment was terminated and survival curves were drawn using GraphPad Prism.

[4] = 3 weeks treatment, RT-qPCR relative to GAPDH
[5] = C57 mice, ConA 15 mg/kg i.v., compound 3 or 10 mg/kg/d oral gavage, 12 hours after ConA
[6] = repeat experiment, 10 mg/kg/d, dexamethasone 0.5 mg/kg/d as positive control

SMILES: Cc1cc(O)cc2c1C1(C)CCC3C(C)(C)CCCC3(C)C1C2 (centres unmarked) [Compound I-1]
- reduction of histological and molecular markers of colon inflammation, compared with dexamethasone [1]: as effective as dexamethasone
- pathology scores of colon sections ([1]; 3 weeks treatment, 2 mg/kg compound I-1 or 0.4 mg/kg dexamethasone, vs vehicle): significantly lower pathology scores
- CCL2 mRNA in colon [1, 4]: significantly reduced
- IL17 mRNA in colon [1, 4]: significantly reduced
- BUN [2, 5]: significantly reduced
- TBIL [2, 5]: significantly reduced
- plasma ALT [2, 5]: significantly reduced
- plasma AST [2, 5]: significantly reduced
- ConA-induced ALT level [2, 6]: significantly lowered
- ConA-induced AST level [2, 6]: significantly lowered
- 7-day survival rate [3]: 50%
